From ChEMBL document CHEMBL4334464, “From Phenylthiazoles to Phenylpyrazoles: Broadening the Antibacterial Spectrum toward Carbapenem-Resistant Bacteria” (J Med Chem, 2019)
Converted amounts (≈) assume the structure as drawn. The source made the active and inactive calls. No cut-off for these calls is given here.

Experiments:
[1] = tested on: Enterococcus faecalis; experiment: Antibacterial activity against vancomycin-resistant Enterococcus faecalis ATCC 51299 clinical isolates after 18 to 20 hrs in aerobic condition by CLSI-based broth microdilution assay; type: functional
[2] = tested on: Streptococcus pneumoniae; experiment: Antibacterial activity against methicillin-resistant Streptococcus pneumoniae ATCC 700677 clinical isolates after 18 to 20 hrs by CLSI-based broth microdilution assay; type: functional
[3] = tested on: Klebsiella pneumoniae; experiment: Antibacterial activity against carbapenem-resistant Klebsiella pneumoniae ATCC BAA-1705 clinical isolates after 18 to 20 hrs in aerobic condition by CLSI-based broth microdilution assay; type: functional
[4] = tested on: Streptococcus pneumoniae; experiment: Ratio of MBC to MIC for […] Streptococcus pneumoniae ATCC 700677 clinical isolates; type: functional
[5] = tested on: Escherichia coli; experiment: Antibacterial activity against carbapenem-resistant Escherichia coli BAA-2452 clinical isolates after 18 to 20 hrs in aerobic condition by CLSI-based broth microdilution assay; type: functional
[6] = tested on: Enterococcus faecium; experiment: Ratio of MBC to MIC for vancomycin-resistant Enterococcus faecium ATCC 700221 clinical isolates; type: functional
[7] = tested on: Acinetobacter baumannii; experiment: microbe, parasite or virus in culture; conditions: ATCC BAA 1747
Description: Antibacterial activity against Acinetobacter baumannii ATCC BAA 1747 after 18 to 20 hrs in aerobic condition by CLSI-based broth microdilution assay

[8] = tested on: Klebsiella pneumoniae; experiment: Antibacterial activity against Klebsiella pneumoniae BAA-1144 clinical isolates after 18 to 20 hrs in aerobic condition by CLSI-based broth microdilution assay; type: functional
[9] = tested on: Acinetobacter baumannii; experiment: Antibacterial activity against Acinetobacter baumannii NR 17786 clinical isolates after 18 to 20 hrs in aerobic condition by CLSI-based broth microdilution assay; type: functional
[10] = tested on: Staphylococcus aureus; experiment: Antibacterial activity against vancomycin-resistant Staphylococcus aureus isolate 10 after 18 to 20 hrs in aerobic condition by CLSI-based broth microdilution assay; type: functional
[11] = tested on: Pseudomonas aeruginosa; experiment: Antibacterial activity against Pseudomonas aeruginosa ATCC 15442 clinical isolates after 18 to 20 hrs in aerobic condition by CLSI-based broth microdilution assay; type: functional
[12] = tested on: Staphylococcus aureus; experiment: Antibacterial activity against Methicillin-resistant Staphylococcus aureus USA700-NRS386 clinical isolates after 18 to 20 hrs in aerobic condition by CLSI protocol based broth microdilution assay; type: functional
[13] = tested on: Escherichia coli; experiment: Antibacterial activity against Escherichia coli BW25113 clinical isolates after 18 to 20 hrs in aerobic condition by CLSI-based broth microdilution assay; type: functional
[14] = tested on: Klebsiella pneumoniae; experiment: Ratio of MBC to MIC for Klebsiella pneumoniae BAA-1144 clinical isolates; type: functional
[15] = tested on: Enterobacter cloacae subsp. cloacae; experiment: Ratio of MBC to MIC for Enterobacter cloacae subsp. cloacae ATCC BAA-1143 clinical isolates; type: functional
[16] = tested on: Acinetobacter baumannii; experiment: Ratio of MBC to MIC for Acinetobacter baumannii ATCC BAA 1141 clinical isolates; type: functional
[17] = tested on: Staphylococcus epidermidis; experiment: Ratio of MBC to MIC for Staphylococcus epidermidis NRS101 clinical isolates; type: functional
[18] = tested on: Listeria monocytogenes; experiment: Antibacterial activity against Listeria monocytogenes ATCC 19111 after 18 to 20 hrs in aerobic condition by CLSI-based broth microdilution assay; type: functional
[19] = tested on: Streptococcus pneumoniae; experiment: Ratio of MBC to MIC for cephalosporin-resistant Streptococcus pneumoniae ATCC 51916 clinical isolates; type: functional
[20] = tested on: Staphylococcus aureus; experiment: Antibacterial activity against Methicillin-sensitive Staphylococcus aureus ATCC 6538 clinical isolates after 18 to 20 hrs in aerobic condition by CLSI protocol based broth microdilution assay; type: functional
[21] = tested on: Salmonella enteritidis; experiment: Ratio of MBC to MIC for Salmonella enteritidis ATCC 13076 clinical isolates; type: functional, Salmonella enterica subsp. enterica serovar Enteritidis
[22] = tested on: Escherichia coli; experiment: Ratio of MBC to MIC for Escherichia coli ATCC 25922 clinical isolates; type: functional
[23] = tested on: Salmonella typhimurium; experiment: Antibacterial activity against Salmonella typhimurium ATCC 700720 after 18 to 20 hrs in aerobic condition by CLSI-based broth microdilution assay; type: functional, Salmonella enterica subsp. enterica serovar Typhimurium; conditions: Salmonella enterica
[24] = tested on: Enterococcus faecalis; experiment: Ratio of MBC to MIC for vancomycin-resistant Enterococcus faecalis ATCC 51299 clinical isolates; type: functional
[25] = tested on: Escherichia coli; experiment: Ratio of MBC to MIC for Escherichia coli BW25113 clinical isolates; type: functional
[26] = tested on: Staphylococcus aureus; experiment: Ratio of MBC to MIC for Methicillin-sensitive Staphylococcus aureus NRS107 clinical isolates; type: functional
[27] = tested on: Shigella flexneri; experiment: Antibacterial activity against Shigella flexneri ATCC 9199 clinical isolates after 18 to 20 hrs in aerobic condition by CLSI-based broth microdilution assay; type: functional
[28] = tested on: Acinetobacter baumannii; experiment: Antibacterial activity against Acinetobacter baumannii NR 17785 clinical isolates after 18 to 20 hrs in aerobic condition by CLSI-based broth microdilution assay; type: functional
[29] = tested on: Salmonella enteritidis; experiment: Ratio of MBC to MIC for Salmonella enteritidis ATCC 14028 clinical isolates; type: functional, Salmonella enterica subsp. enterica serovar Enteritidis
[30] = tested on: Staphylococcus aureus; experiment: Antibacterial activity against methicillin-resistant Staphylococcus aureus NRS384-USA300 clinical isolates after 18 to 20 hrs in aerobic condition by CLSI protocol based broth microdilution assay; type: functional
[31] = biological target: T1, Ditrans,polycis-undecaprenyl-diphosphate synthase ((2E,6E)-farnesyl-diphosphate specific) (Escherichia coli (strain K12)) (UniProt P60472); experiment: Inhibition of Escherichia coli UPPS using FPP/IPP as substrate preincubated for 30 mins followed by substrates addition and measured after 30 mins by malachite green reagent based assay
T1 sequence (whole entry): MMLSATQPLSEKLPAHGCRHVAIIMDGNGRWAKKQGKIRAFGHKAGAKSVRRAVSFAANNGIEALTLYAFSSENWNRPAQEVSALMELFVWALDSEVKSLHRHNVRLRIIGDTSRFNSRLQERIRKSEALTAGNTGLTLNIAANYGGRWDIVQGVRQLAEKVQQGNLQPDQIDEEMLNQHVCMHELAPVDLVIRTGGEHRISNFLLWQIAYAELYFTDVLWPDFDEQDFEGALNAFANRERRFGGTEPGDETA

[32] = tested on: Staphylococcus aureus; experiment: Antibiofilm activity against methicillin-resistant Staphylococcus aureus NRS384-USA300 clinical isolates assessed as inhibition of biofilm formation at 0.5 times MIC incubated for 24 hrs by crystal violet staining based spectrophotometric method relative to control; type: functional
[33] = tested on: Clostridioides difficile; experiment: Ratio of MBC to MIC for Clostridium difficile ATCC BAA 1870; type: functional

Row | SMILES | MIC [1] [µg/mL] | MIC [2] [µg/mL] | MIC [3] [µg/mL] | Ratio [4] | MIC [5] [µg/mL] | Ratio [6] | MIC [7] [µg/mL] | MIC [8] [µg/mL] | MIC [9] [µg/mL] | MIC [10] [µg/mL] | MIC [11] [µg/mL] | MIC [12] [µg/mL] | MIC [13] [µg/mL] | Ratio [14] | Ratio [15] | Ratio [16] | Ratio [17] | MIC [18] [µg/mL] | Ratio [19] | MIC [20] [µg/mL] | other results
1 | C/C(=N\NC(=N)N)c1cnn(-c2ccc(C#CC3CCCCC3)cc2)c1C | 2 (≈ 5.52 µM) | 2 (≈ 5.52 µM) | 8 (≈ 22.1 µM) | <3 | 8 (≈ 22.1 µM) | <3 | 4 (≈ 11 µM) | 16 (≈ 44.1 µM) | 8 (≈ 22.1 µM) | 2 (≈ 5.52 µM) | 32 (≈ 88.3 µM) | 2 (≈ 5.52 µM) | 4 (≈ 11 µM) | >=1 | > 1 | >=1 | <3 | 2 (≈ 5.52 µM) | <3 | 2 (≈ 5.52 µM) | Ratio [21]: >=1; Ratio [22]: >=1; MIC [23]: 8 µg/mL (≈ 22.1 µM); Ratio [24]: <3; Ratio [25]: >=1; Ratio [26]: <=2; MIC [27]: 8 µg/mL (≈ 22.1 µM); MIC [28]: 8 µg/mL (≈ 22.1 µM); Ratio [29]: >=1; MIC [30]: 2 µg/mL (≈ 5.52 µM); inhibition [31]: inactive; inhibition (INH) [32]: 22%; Ratio [33]: <3
2 | CCCC#Cc1ccc(-n2ncc(/C(C)=N/NC(=N)N)c2C)cc1 | 4 (≈ 12.4 µM) | 4 (≈ 12.4 µM) | 16 (≈ 49.6 µM) | <3 | 32 (≈ 99.3 µM) | <3 | 8 (≈ 24.8 µM) | 16 (≈ 49.6 µM) | 16 (≈ 49.6 µM) | 2 (≈ 6.2 µM) | 16 (≈ 49.6 µM) | 4 (≈ 12.4 µM) | 8 (≈ 24.8 µM) | >=1 | > 1 | >=1 | <3 | 4 (≈ 12.4 µM) | <3 | 2 (≈ 6.2 µM) | Ratio [21]: >=1; Ratio [22]: >=1; MIC [23]: 16 µg/mL (≈ 49.6 µM); Ratio [24]: <3; Ratio [25]: >=1; Ratio [26]: <=2; MIC [27]: 16 µg/mL (≈ 49.6 µM); MIC [28]: 8 µg/mL (≈ 24.8 µM); Ratio [29]: >=1; MIC [30]: 4 µg/mL (≈ 12.4 µM); inhibition [31]: inactive; inhibition (INH) [32]: 74%; Ratio [33]: <3
3 | CCCCCC#Cc1ccc(-n2ncc(/C(C)=N/NC(=N)N)c2C)cc1 | 2 (≈ 5.71 µM) | 2 (≈ 5.71 µM) | 16 (≈ 45.7 µM) | <3 | 16 (≈ 45.7 µM) | <3 | 4 (≈ 11.4 µM) | 16 (≈ 45.7 µM) | 8 (≈ 22.8 µM) | 2 (≈ 5.71 µM) | 32 (≈ 91.3 µM) | 2 (≈ 5.71 µM) | 8 (≈ 22.8 µM) | >=1 | > 1 | >=1 | <3 | 2 (≈ 5.71 µM) | <3 | 2 (≈ 5.71 µM) | Ratio [21]: >=1; Ratio [22]: >=1; MIC [23]: 8 µg/mL (≈ 22.8 µM); Ratio [24]: <3; Ratio [25]: >=1; Ratio [26]: <=2; MIC [27]: 8 µg/mL (≈ 22.8 µM); MIC [28]: 8 µg/mL (≈ 22.8 µM); Ratio [29]: >=1; MIC [30]: 2 µg/mL (≈ 5.71 µM); inhibition [31]: inactive; Ratio [33]: <3
